The results in this text go back to the NIST ThermoML archive (doi:10.1016/j.jct.2009.06.011).

± gives the expanded uncertainty stated by the source.

This data set in a line: activity coefficient (dimensionless); of the first substance listed, at infinite dilution; xn = mol fraction of the nth substance listed. The conditions noted are these: 101 kPa, Liquid, Chromatography, x1 = 0.

Turning to `C#CCCC` [1-pentyne] + CCCC[n+]1ccc(C)cc1.O=S(=O)([N-]S(=O)(=O)C(F)(F)F)C(F)(F)F, the activity coefficient is, setting by setting: (298.15 K) 1.79 ± 0.12; (308.15 K) 1.82 ± 0.12; (318.15 K) 1.84 ± 0.12; (328.15 K) 1.87 ± 0.13; (338.15 K) 1.89 ± 0.13; (348.15 K) 1.91 ± 0.13. Further, the activity coefficient amounted to 1.93 ± 0.13 (358.15 K) and 1.95 ± 0.13 (368.15 K).
Regarding `C1CCOC1` [tetrahydrofuran] + CCCC[n+]1ccc(C)cc1.O=S(=O)([N-]S(=O)(=O)C(F)(F)F)C(F)(F)F, the activity coefficient by setting is: (298.15 K) 0.617 ± 0.043; (308.15 K) 0.63 ± 0.044; (318.15 K) 0.641 ± 0.044; (328.15 K) 0.653 ± 0.045; (338.15 K) 0.663 ± 0.045; (348.15 K) 0.673 ± 0.046. Also, the activity coefficient runs as follows: (358.15 K) 0.683 ± 0.046; (368.15 K) 0.693 ± 0.047.
Regarding `COC(C)(C)C` [2-methoxy-2-methylpropane] + CCCC[n+]1ccc(C)cc1.O=S(=O)([N-]S(=O)(=O)C(F)(F)F)C(F)(F)F, the activity coefficient is 1.97 ± 0.13 (298.15 K); 2 ± 0.14 (308.15 K); 2.03 ± 0.14 (318.15 K); 2.06 ± 0.14 (328.15 K); 2.08 ± 0.14 (338.15 K); 2.1 ± 0.14 (348.15 K). Also, the activity coefficient runs as follows: (358.15 K) 2.12 ± 0.14; (368.15 K) 2.15 ± 0.15.
Take `CCCOCCC` [dipropyl ether] + CCCC[n+]1ccc(C)cc1.O=S(=O)([N-]S(=O)(=O)C(F)(F)F)C(F)(F)F: the activity coefficient came to 4.91 ± 0.33 (298.15 K); 4.81 ± 0.33 (308.15 K); 4.71 ± 0.32 (318.15 K); 4.62 ± 0.31 (328.15 K); 4.54 ± 0.31 (338.15 K); 4.45 ± 0.3 (348.15 K). In addition, the activity coefficient by setting is: (358.15 K) 4.38 ± 0.3; (368.15 K) 4.31 ± 0.29.
On to `CCCCCCCCCC` [decane] + CCCC[n+]1ccc(C)cc1.O=S(=O)([N-]S(=O)(=O)C(F)(F)F)C(F)(F)F, for which the activity coefficient was 54.7 ± 3.7 (298.15 K); 49.3 ± 3.4 (308.15 K); 45 ± 3.1 (318.15 K); 41.1 ± 2.8 (328.15 K); 37.6 ± 2.6 (338.15 K); 34.6 ± 2.4 (348.15 K). The activity coefficient reads like this: (358.15 K) 31.9 ± 2.2; (368.15 K) 29.7 ± 2.
Turning to `C=CCCCC` [hex-1-ene] + CCCC[n+]1ccc(C)cc1.O=S(=O)([N-]S(=O)(=O)C(F)(F)F)C(F)(F)F, the activity coefficient by setting is: (298.15 K) 7.4 ± 0.5; (308.15 K) 7.11 ± 0.48; (318.15 K) 6.82 ± 0.47; (328.15 K) 6.58 ± 0.45; (338.15 K) 6.37 ± 0.43; (348.15 K) 6.17 ± 0.42. The activity coefficient by setting is: (358.15 K) 5.99 ± 0.41; (368.15 K) 5.82 ± 0.4.
As for `CC(C)=O` [acetone] + CCCC[n+]1ccc(C)cc1.O=S(=O)([N-]S(=O)(=O)C(F)(F)F)C(F)(F)F, the activity coefficient came to 0.398 ± 0.034 (298.15 K); 0.406 ± 0.034 (308.15 K); 0.415 ± 0.035 (318.15 K); 0.423 ± 0.035 (328.15 K); 0.43 ± 0.035 (338.15 K); 0.438 ± 0.035 (348.15 K). Further, the activity coefficient is, setting by setting: (358.15 K) 0.445 ± 0.036; (368.15 K) 0.451 ± 0.036.
Take `CCCCCC` [hexane] + CCCC[n+]1ccc(C)cc1.O=S(=O)([N-]S(=O)(=O)C(F)(F)F)C(F)(F)F: the activity coefficient by setting is: (298.15 K) 15.4 ± 1.1; (308.15 K) 14.5 ± 1; (318.15 K) 13.5 ± 0.9; (328.15 K) 12.7 ± 0.9; (338.15 K) 12 ± 0.8; (348.15 K) 11.4 ± 0.8. Also, the activity coefficient (358.15 K) was 10.8 ± 0.7 and the activity coefficient (368.15 K) was 10.3 ± 0.7.
Regarding `C=CCCCCC` [1-heptene] + CCCC[n+]1ccc(C)cc1.O=S(=O)([N-]S(=O)(=O)C(F)(F)F)C(F)(F)F, the activity coefficient came out at 9.97 ± 0.68 (298.15 K); 9.56 ± 0.65 (308.15 K); 9.17 ± 0.63 (318.15 K); 8.82 ± 0.6 (328.15 K); 8.51 ± 0.58 (338.15 K); 8.24 ± 0.56 (348.15 K). Moreover, the activity coefficient (358.15 K) turned out to be 7.99 ± 0.54 and the activity coefficient (368.15 K) worked out at 7.76 ± 0.53.
For `CO` [methanol] + CCCC[n+]1ccc(C)cc1.O=S(=O)([N-]S(=O)(=O)C(F)(F)F)C(F)(F)F, the activity coefficient came out at 1.53 ± 0.1 (298.15 K); 1.39 ± 0.09 (308.15 K); 1.27 ± 0.08 (318.15 K); 1.17 ± 0.07 (328.15 K); 1.08 ± 0.07 (338.15 K); 1 ± 0.06 (348.15 K). The activity coefficient runs as follows: (358.15 K) 0.935 ± 0.059; (368.15 K) 0.876 ± 0.056.
In the case of `Cc1ccccc1` [toluene] + CCCC[n+]1ccc(C)cc1.O=S(=O)([N-]S(=O)(=O)C(F)(F)F)C(F)(F)F, the activity coefficient turned out to be 0.973 ± 0.061 (318.15 K); 1 ± 0.063 (328.15 K); 1.02 ± 0.064 (338.15 K); 1.05 ± 0.066 (348.15 K); 1.07 ± 0.067 (358.15 K); 1.09 ± 0.069 (368.15 K).
For the compound `C1CCCC1` [cyclopentane] + CCCC[n+]1ccc(C)cc1.O=S(=O)([N-]S(=O)(=O)C(F)(F)F)C(F)(F)F, the activity coefficient came out at 6.65 ± 0.45 (298.15 K); 6.25 ± 0.43 (308.15 K); 5.89 ± 0.4 (318.15 K); 5.59 ± 0.38 (328.15 K); 5.28 ± 0.36 (338.15 K); 5.03 ± 0.34 (348.15 K). Further, the activity coefficient stood at 4.81 ± 0.33 (358.15 K) and 4.6 ± 0.31 (368.15 K).
For `Cc1ccc(C)cc1` [1,4-dimethylbenzene] + CCCC[n+]1ccc(C)cc1.O=S(=O)([N-]S(=O)(=O)C(F)(F)F)C(F)(F)F, the activity coefficient is, setting by setting: (318.15 K) 1.35 ± 0.09; (328.15 K) 1.38 ± 0.09; (338.15 K) 1.42 ± 0.09; (348.15 K) 1.45 ± 0.1; (358.15 K) 1.48 ± 0.1; (368.15 K) 1.51 ± 0.1.
`C=CCCCCCC` [oct-1-ene] + CCCC[n+]1ccc(C)cc1.O=S(=O)([N-]S(=O)(=O)C(F)(F)F)C(F)(F)F: the activity coefficient amounted to 13.8 ± 0.9 (298.15 K); 13 ± 0.9 (308.15 K); 12.4 ± 0.8 (318.15 K); 11.8 ± 0.8 (328.15 K); 11.3 ± 0.8 (338.15 K); 10.9 ± 0.7 (348.15 K). Also, the activity coefficient is, setting by setting: (358.15 K) 10.4 ± 0.7; (368.15 K) 10.1 ± 0.7.
